The text below walks through data of the supplement of paper PMC11208160.
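Note: IS621 recombinase and bridge RNA in Escherichia coli cells.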

A short description of the data set: recombinant barcode read abundance after kanamycin selection (control-corrected) (log10(CPM+1)); higher = more efficient recombination; sequences stand for … in AGTGCAGAGAAAATCGGCCAGTTTTCTCTGCCTGCAGTCCGCATGCCGT…AGATTTATGCAGCGGACTGCCTTTCTCCCAAAGTGATAAACCGGACAGTATCATGGACCGGTTTTCCCGGTAATCCGTATTTGCAAGGTTGGTTTCACT; site = the 11-nt target. An outline of the steps: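 Recombination efficiency comes from barcode counts at recombinant junctions, converted to counts per million, averaged and corrected against the control. Values appear as log10(CPM+1). They were obtained from a pooled E. coli screen in which each oligo paired a target with an IS621 bridge RNA target-binding loop, and cells were plated in duplicate on chloramphenicol/ampicillin LB agar or on chloramphenicol/ampicillin/kanamycin with 0.1 mM IPTG.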
As for “GAGTAGACTTGGGTTCTAACCTGTTGCTT (site GAGTAGACTAA)”, the “recombinant barcode read abundance (log10)” value worked out at 1.64.

As to “GAGTAGACTTGGGTTCTAACCTGTTGCTT (site GAGTAGTCTAA)”, the “recombinant barcode read abundance (log10)” value stood at 1.22.

“GAGTATGCTTGGGTTCTAACCTGTTGCCT (site GAGTATGCTAG)”: the “recombinant barcode read abundance (log10)” value was 1.72.

Regarding “GAGTATGCTTGGGTTCTAACCTGTTGCCT (site GATTATGCTAG)”, the “recombinant barcode read abundance (log10)” value amounted to 0.223.

As to “GAGTATTCTTGGGTTCTAACCTGTTGCCT (site GAATATTCTAG)”, the “recombinant barcode read abundance (log10)” value amounted to 1.2.

For the sequence “GAGTATTCTTGGGTTCTAACCTGTTGCCT (site GACTATTCTAG)”, the “recombinant barcode read abundance (log10)” value was 0.0264.

On to “GAGTATTCTTGGGTTCTAACCTGTTGCCT (site GAGTATTCTAG)”, for which the “recombinant barcode read abundance (log10)” value is 1.16.

Turning to “GAGTATTCTTGGGTTCTAACCTGTTGCCT (site GATTATTCTAG)”, the “recombinant barcode read abundance (log10)” value was 0.123.

For “GAGTCGTCTTGGGTTCTAACCTGTTGCCT (site GAGTCGCCTAG)”, the “recombinant barcode read abundance (log10)” value turned out to be 0.193.

With “GAGTCGTCTTGGGTTCTAACCTGTTGCCT (site GAGTCGTCTAG)”, the “recombinant barcode read abundance (log10)” value is 1.78.

For “GAGTCTACTTGGGTTCTAACCTGTTGCCA (site CCTATAGCTAA)”, the “recombinant barcode read abundance (log10)” value was determined as 0.0951.

On to “GAGTCTACTTGGGTTCTAACCTGTTGCCA (site GAGTCTACTTG)”, for which the “recombinant barcode read abundance (log10)” value is 0.317.

Consider “GAGTCTACTTGGGTTCTAACCTGTTGCCG (site GAGTCTACTCG)”, for which the “recombinant barcode read abundance (log10)” value amounted to 0.562.

Turning to “GAGTCTACTTGGGTTCTAACCTGTTGCCG (site GAGTCTACTCT)”, the “recombinant barcode read abundance (log10)” value was 0.0936.

Consider “GAGTTAACTTGGGTTCTAACCTGTTGCCG (site GAGTTAACTCG)”, for which the “recombinant barcode read abundance (log10)” value was determined as 0.262.

For “GAGTTAACTTGGGTTCTAACCTGTTGCCG (site GTGTGAACTCG)”, the “recombinant barcode read abundance (log10)” value turned out to be 0.0546.

In the case of “GAGTTCCCTTGGGTTCTAACCTGTTGCGT (site GAGTTACCTAC)”, the “recombinant barcode read abundance (log10)” value amounted to 0.341.

Take “GAGTTCCCTTGGGTTCTAACCTGTTGCGT (site GAGTTCCCTAC)”: the “recombinant barcode read abundance (log10)” value worked out at 2.66.

For the sequence “GAGTTCCCTTGGGTTCTAACCTGTTGCGT (site GAGTTGCCTAC)”, the “recombinant barcode read abundance (log10)” value is 0.23.

As for “GAGTTCCCTTGGGTTCTAACCTGTTGCGT (site GAGTTTCCTAC)”, the “recombinant barcode read abundance (log10)” value was found to be 0.0134.

For “GAGTTGCCTTGGGTTCTAACCTGTTGCGT (site GAGTTACCTAC)”, the “recombinant barcode read abundance (log10)” value turned out to be 1.96.

Take “GAGTTGCCTTGGGTTCTAACCTGTTGCGT (site GAGTTCCCTAC)”: the “recombinant barcode read abundance (log10)” value was 0.108.

Turning to “GAGTTGCCTTGGGTTCTAACCTGTTGCGT (site GAGTTGCCTAC)”, the “recombinant barcode read abundance (log10)” value came out at 1.68.

As for “GAGTTGCCTTGGGTTCTAACCTGTTGCGT (site GAGTTTCCTAC)”, the “recombinant barcode read abundance (log10)” value was found to be 0.0593.

Take “GAGTTTCCTTGGGTTCTAACCTGTTGCAG (site GAGCGTCCTCT)”: the “recombinant barcode read abundance (log10)” value amounted to 0.118.

For “GAGTTTCCTTGGGTTCTAACCTGTTGCAG (site GAGTTTCCTCT)”, the “recombinant barcode read abundance (log10)” value stood at 0.343.

Consider “GATAGAGCTTGGGTTCTAACCTGTTGCCG (site GATAGAGCTCG)”, for which the “recombinant barcode read abundance (log10)” value is 0.772.

For the sequence “GATAGAGCTTGGGTTCTAACCTGTTGCCG (site GATATAGCTAG)”, the “recombinant barcode read abundance (log10)” value was 0.

Take “GATAGGCCTTGGGTTCTAACCTGTTGCTT (site AATTGGCCTAA)”: the “recombinant barcode read abundance (log10)” value was 0.0314.

“GATAGGCCTTGGGTTCTAACCTGTTGCTT (site GATAGGCCTAA)”: the “recombinant barcode read abundance (log10)” value turned out to be 0.371.

Regarding “GATAGTACTTGGGTTCTAACCTGTTGCCT (site GATAGTACTAG)”, the “recombinant barcode read abundance (log10)” value came to 1.48.

Take “GATAGTACTTGGGTTCTAACCTGTTGCCT (site GATAGTCCTAG)”: the “recombinant barcode read abundance (log10)” value is 0.0718.

Consider “GATAGTACTTGGGTTCTAACCTGTTGCCT (site GATAGTGCTAG)”, for which the “recombinant barcode read abundance (log10)” value worked out at 0.0995.

Regarding “GATAGTACTTGGGTTCTAACCTGTTGCCT (site GATAGTTCTAG)”, the “recombinant barcode read abundance (log10)” value was 0.17.

As to “GATAGTTCTTGGGTTCTAACCTGTTGCCT (site GATAGTACTAG)”, the “recombinant barcode read abundance (log10)” value was 0.0904.

Take “GATAGTTCTTGGGTTCTAACCTGTTGCCT (site GATAGTCCTAG)”: the “recombinant barcode read abundance (log10)” value turned out to be 0.675.

Consider “GATAGTTCTTGGGTTCTAACCTGTTGCCT (site GATAGTGCTAG)”, for which the “recombinant barcode read abundance (log10)” value stood at 0.132.

Regarding “GATAGTTCTTGGGTTCTAACCTGTTGCCT (site GATAGTTCTAG)”, the “recombinant barcode read abundance (log10)” value is 0.264.

Consider “GATCATCCTTGGGTTCTAACCTGTTGCCT (site GATCATCCTAG)”, for which the “recombinant barcode read abundance (log10)” value was determined as 0.364.

As for “GATCATCCTTGGGTTCTAACCTGTTGCCT (site GTTCATCCTAG)”, the “recombinant barcode read abundance (log10)” value amounted to 0.0462.

In the case of “GATCCATCTTGGGTTCTAACCTGTTGCCT (site GATCCATCTAG)”, the “recombinant barcode read abundance (log10)” value is 0.561.

Consider “GATCCATCTTGGGTTCTAACCTGTTGCCT (site GCTCCATCTAG)”, for which the “recombinant barcode read abundance (log10)” value came out at 0.251.

On to “GATCCATCTTGGGTTCTAACCTGTTGCCT (site GGTCCATCTAG)”, for which the “recombinant barcode read abundance (log10)” value stood at 0.209.

“GATCCATCTTGGGTTCTAACCTGTTGCCT (site GTTCCATCTAG)”: the “recombinant barcode read abundance (log10)” value stood at 0.142.

For “GATCCGTCTTGGGTTCTAACCTGTTGCGG (site GATCCGTCTCC)”, the “recombinant barcode read abundance (log10)” value was found to be 0.136.

On to “GATCCGTCTTGGGTTCTAACCTGTTGCGG (site GGTCCGGCTCC)”, for which the “recombinant barcode read abundance (log10)” value stood at 0.551.

“GATCCTACTTGGGTTCTAACCTGTTGCCT (site GATCCTACTAG)”: the “recombinant barcode read abundance (log10)” value was 1.14.

Take “GATCCTACTTGGGTTCTAACCTGTTGCCT (site GCTCCTACTAG)”: the “recombinant barcode read abundance (log10)” value worked out at 0.0495.

As to “GATCCTACTTGGGTTCTAACCTGTTGCCT (site GGTCCTACTAG)”, the “recombinant barcode read abundance (log10)” value was determined as 0.346.

Turning to “GATCCTACTTGGGTTCTAACCTGTTGCCT (site GTTCCTACTAG)”, the “recombinant barcode read abundance (log10)” value came to 0.0681.

For “GATCGATCTTGGGTTCTAACCTGTTGCGT (site GATCGATCTAA)”, the “recombinant barcode read abundance (log10)” value was determined as 0.197.

With “GATCGATCTTGGGTTCTAACCTGTTGCGT (site GATCGATCTAC)”, the “recombinant barcode read abundance (log10)” value is 1.46.

“GATCGATCTTGGGTTCTAACCTGTTGCGT (site GATCGATCTAG)”: the “recombinant barcode read abundance (log10)” value came to 0.284.

For “GATCGATCTTGGGTTCTAACCTGTTGCGT (site GATCGATCTAT)”, the “recombinant barcode read abundance (log10)” value came out at 0.265.

On to “GATCTGCCTTGGGTTCTAACCTGTTGCCT (site GATCAGCCTAG)”, for which the “recombinant barcode read abundance (log10)” value was determined as 0.246.

For the sequence “GATCTGCCTTGGGTTCTAACCTGTTGCCT (site GATCTGCCTAG)”, the “recombinant barcode read abundance (log10)” value is 0.984.

Turning to “GATGGGACTTGGGTTCTAACCTGTTGCCG (site GATAGGACTAG)”, the “recombinant barcode read abundance (log10)” value came to 0.0533.

In the case of “GATGGGACTTGGGTTCTAACCTGTTGCCG (site GATGGGACTCG)”, the “recombinant barcode read abundance (log10)” value amounted to 2.19.

For the sequence “GATGTGCCTTGGGTTCTAACCTGTTGCGT (site CCGCGAGCTCG)”, the “recombinant barcode read abundance (log10)” value stood at 0.0696.

On to “GATGTGCCTTGGGTTCTAACCTGTTGCGT (site GATGTGCCTAC)”, for which the “recombinant barcode read abundance (log10)” value is 2.57.

For the sequence “GATTATGCTTGGGTTCTAACCTGTTGCCT (site GAGTATGCTAG)”, the “recombinant barcode read abundance (log10)” value worked out at 0.259.

On to “GATTATGCTTGGGTTCTAACCTGTTGCCT (site GATTATGCTAG)”, for which the “recombinant barcode read abundance (log10)” value came to 0.615.

Turning to “GATTCTACTTGGGTTCTAACCTGTTGCTT (site GAATCTACTAA)”, the “recombinant barcode read abundance (log10)” value is 0.155.

With “GATTCTACTTGGGTTCTAACCTGTTGCTT (site GACTCTACTAA)”, the “recombinant barcode read abundance (log10)” value was 0.22.

With “GATTCTACTTGGGTTCTAACCTGTTGCTT (site GAGTCTACTAA)”, the “recombinant barcode read abundance (log10)” value worked out at 0.813.

For the sequence “GATTCTACTTGGGTTCTAACCTGTTGCTT (site GATTCTACTAA)”, the “recombinant barcode read abundance (log10)” value came out at 0.0583.

As for “GATTTCGCTTGGGTTCTAACCTGTTGCCT (site ATCAGTTCTCA)”, the “recombinant barcode read abundance (log10)” value was 0.0643.

Regarding “GATTTCGCTTGGGTTCTAACCTGTTGCCT (site GATTTCGCTAG)”, the “recombinant barcode read abundance (log10)” value was found to be 0.42.

In the case of “GCAAGCTCTTGGGTTCTAACCTGTTGCTA (site GCAAGCTCTTA)”, the “recombinant barcode read abundance (log10)” value was 1.3.

As for “GCAAGCTCTTGGGTTCTAACCTGTTGCTA (site GCAAGGTCTTA)”, the “recombinant barcode read abundance (log10)” value turned out to be 0.36.

As for “GCAAGGGCTTGGGTTCTAACCTGTTGCCG (site GCAAGGGCTCG)”, the “recombinant barcode read abundance (log10)” value was 1.24.

Consider “GCAAGGGCTTGGGTTCTAACCTGTTGCCG (site GCTAGGGCTCT)”, for which the “recombinant barcode read abundance (log10)” value was found to be 0.303.

In the case of “GCAAGGTCTTGGGTTCTAACCTGTTGCAT (site CGTTCTCCTTA)”, the “recombinant barcode read abundance (log10)” value was determined as 0.18.

“GCAAGGTCTTGGGTTCTAACCTGTTGCAT (site GCAAGGTCTAT)”: the “recombinant barcode read abundance (log10)” value was found to be 2.5.

For the sequence “GCAAGGTCTTGGGTTCTAACCTGTTGCTA (site GCAAGCTCTTA)”, the “recombinant barcode read abundance (log10)” value was 0.133.

In the case of “GCAAGGTCTTGGGTTCTAACCTGTTGCTA (site GCAAGGTCTTA)”, the “recombinant barcode read abundance (log10)” value came to 1.98.

On to “GCAAGTCCTTGGGTTCTAACCTGTTGCGT (site CATGCCTCTCG)”, for which the “recombinant barcode read abundance (log10)” value is 0.0651.
